Laboratory results taken from ChEMBL document CHEMBL3046265, “Synthesis, evaluation of antimicrobial activity, and molecular modeling of novel 2-((4-(2H-benzo[d] [1,2,3] triazol-2-yl)piperidin-1-yl)methyl)-5-substituted phenyl-1,3,4-oxadiazoles” (2013).

What was measured:
Format in all cases: functional
Conditions in all cases: read-out: IZ
Proteus vulgaris [1] = assay: Antibacterial activity against Proteus vulgaris at 900 ug/ml after overnight incubation
Escherichia coli [2] = assay: Antibacterial activity against Escherichia coli at 600 ug/ml after overnight incubation
Escherichia coli [3] = assay: Antibacterial activity against Escherichia coli at 900 ug/ml after overnight incubation
Proteus vulgaris [4] = assay: Antibacterial activity against Proteus vulgaris at 600 ug/ml after overnight incubation
Colletotrichum falcatum [5] = assay: Antifungal activity against Glomerella tucumanensis at 300 ug/ml after 48 hr
Fusarium oxysporum [6] = assay: Antifungal activity against Fusarium oxysporum at 1200 ug/ml after 48 hr
Fusarium oxysporum [7] = assay: Antifungal activity against Fusarium oxysporum at 900 ug/ml after 48 hr
Fusarium oxysporum [8] = assay: Antifungal activity against Fusarium oxysporum at 600 ug/ml after 48 hr
Fusarium oxysporum [9] = assay: Antifungal activity against Fusarium oxysporum at 300 ug/ml after 48 hr
Candida albicans [10] = assay: Antifungal activity against Candida albicans at 1200 ug/ml after 48 hr
Candida albicans [11] = assay: Antifungal activity against Candida albicans at 900 ug/ml after 48 hr
Candida albicans [12] = assay: Antifungal activity against Candida albicans at 600 ug/ml after 48 hr
Candida albicans [13] = assay: Antifungal activity against Candida albicans at 300 ug/ml after 48 hr
Streptococcus pyogenes [14] = assay: Antibacterial activity against Streptococcus pyogenes at 900 ug/ml after overnight incubation
Streptococcus pyogenes [15] = assay: Antibacterial activity against Streptococcus pyogenes at 600 ug/ml after overnight incubation
Staphylococcus aureus [16] = assay: Antibacterial activity against Staphylococcus aureus at 900 ug/ml after overnight incubation
Staphylococcus aureus [17] = assay: Antibacterial activity against Staphylococcus aureus at 600 ug/ml after overnight incubation
Bacillus pumilus [18] = assay: Antibacterial activity against Bacillus pumilus at 900 ug/ml after overnight incubation
Bacillus pumilus [19] = assay: Antibacterial activity against Bacillus pumilus at 600 ug/ml after overnight incubation
Priestia megaterium [20] = assay: Antibacterial activity against Bacillus megaterium at 900 ug/ml after overnight incubation
Priestia megaterium [21] = assay: Antibacterial activity against Bacillus megaterium at 600 ug/ml after overnight incubation
Bacillus subtilis [22] = assay: Antibacterial activity against Bacillus subtilis at 900 ug/ml after overnight incubation
Bacillus subtilis [23] = assay: Antibacterial activity against Bacillus subtilis at 600 ug/ml after overnight incubation
Klebsiella aerogenes [24] = assay: Antibacterial activity against Enterobacter aerogenes at 900 ug/ml after overnight incubation
Klebsiella aerogenes [25] = assay: Antibacterial activity against Enterobacter aerogenes at 600 ug/ml after overnight incubation
Klebsiella pneumoniae [26] = assay: Antibacterial activity against Klebsiella pneumoniae at 900 ug/ml after overnight incubation
Klebsiella pneumoniae [27] = assay: Antibacterial activity against Klebsiella pneumoniae at 600 ug/ml after overnight incubation
Enterococcus faecalis [28] = assay: Antibacterial activity against Enterococcus faecalis at 900 ug/ml after overnight incubation
Enterococcus faecalis [29] = assay: Antibacterial activity against Enterococcus faecalis at 600 ug/ml after overnight incubation
Exserohilum rostratum [30] = assay: Antifungal activity against Setosphaeria rostrata at 1200 ug/ml after 48 hr
Exserohilum rostratum [31] = assay: Antifungal activity against Setosphaeria rostrata at 900 ug/ml after 48 hr
Exserohilum rostratum [32] = assay: Antifungal activity against Setosphaeria rostrata at 600 ug/ml after 48 hr
Exserohilum rostratum [33] = assay: Antifungal activity against Setosphaeria rostrata at 300 ug/ml after 48 hr
Colletotrichum falcatum [34] = assay: Antifungal activity against Glomerella tucumanensis at 1200 ug/ml after 48 hr
Colletotrichum falcatum [35] = assay: Antifungal activity against Glomerella tucumanensis at 900 ug/ml after 48 hr
Colletotrichum falcatum [36] = assay: Antifungal activity against Glomerella tucumanensis at 600 ug/ml after 48 hr

Structure (SMILES): O=[N+]([O-])c1ccc(-c2nnc(CN3CCC(n4nc5ccccc5n4)CC3)o2)cc1Cl
- zone of inhibition at 900 µg/mL (Proteus vulgaris [1]): 9.56 mm
- zone of inhibition at 600 µg/mL (Escherichia coli [2]): 4.82 mm
- zone of inhibition at 900 µg/mL (Escherichia coli [3]): 9.56 mm
- zone of inhibition at 600 µg/mL (Proteus vulgaris [4]): 4.85 mm
- zone of inhibition at 300 µg/mL (Colletotrichum falcatum [5]): 4.57 mm
- zone of inhibition at 1200 µg/mL (Fusarium oxysporum [6]): 31.4 mm
- zone of inhibition at 900 µg/mL (Fusarium oxysporum [7]): 15.2 mm
- zone of inhibition at 600 µg/mL (Fusarium oxysporum [8]): 8.8 mm
- zone of inhibition at 300 µg/mL (Fusarium oxysporum [9]): 4.45 mm
- zone of inhibition at 1200 µg/mL (Candida albicans [10]): 23.1 mm
- zone of inhibition at 900 µg/mL (Candida albicans [11]): 12.9 mm
- zone of inhibition at 600 µg/mL (Candida albicans [12]): 6.25 mm
- zone of inhibition at 300 µg/mL (Candida albicans [13]): 2.87 mm
- zone of inhibition at 900 µg/mL (Streptococcus pyogenes [14]): 7.05 mm
- zone of inhibition at 600 µg/mL (Streptococcus pyogenes [15]): 3.35 mm
- zone of inhibition at 900 µg/mL (Staphylococcus aureus [16]): 10.2 mm
- zone of inhibition at 600 µg/mL (Staphylococcus aureus [17]): 4.89 mm
- zone of inhibition at 900 µg/mL (Bacillus pumilus [18]): 7.25 mm
- zone of inhibition at 600 µg/mL (Bacillus pumilus [19]): 3.46 mm
- zone of inhibition at 900 µg/mL (Priestia megaterium [20]): 12.3 mm
- zone of inhibition at 600 µg/mL (Priestia megaterium [21]): 5.62 mm
- zone of inhibition at 900 µg/mL (Bacillus subtilis [22]): 12 mm
- zone of inhibition at 600 µg/mL (Bacillus subtilis [23]): 5.89 mm
- zone of inhibition at 900 µg/mL (Klebsiella aerogenes [24]): 12.4 mm
- zone of inhibition at 600 µg/mL (Klebsiella aerogenes [25]): 6.28 mm
- zone of inhibition at 900 µg/mL (Klebsiella pneumoniae [26]): 6.25 mm
- zone of inhibition at 600 µg/mL (Klebsiella pneumoniae [27]): 3.89 mm
- zone of inhibition at 900 µg/mL (Enterococcus faecalis [28]): 7.25 mm
- zone of inhibition at 600 µg/mL (Enterococcus faecalis [29]): 4.52 mm
- zone of inhibition at 1200 µg/mL (Exserohilum rostratum [30]): 23 mm
- zone of inhibition at 900 µg/mL (Exserohilum rostratum [31]): 11 mm
- zone of inhibition at 600 µg/mL (Exserohilum rostratum [32]): 5.56 mm
- zone of inhibition at 300 µg/mL (Exserohilum rostratum [33]): 2.95 mm
- zone of inhibition at 1200 µg/mL (Colletotrichum falcatum [34]): 33.2 mm
- zone of inhibition at 900 µg/mL (Colletotrichum falcatum [35]): 17.8 mm
- zone of inhibition at 600 µg/mL (Colletotrichum falcatum [36]): 9.86 mm
